Measurements from PubChem BioAssay AID2060340 (Molecular Pharmacology Branch, DTP, NCI, 2025).

Tested on: 349418-098-R-PDC spheroids, viability, % test/control
Test: Anticancer human tumor 349418-098-R-PDC patient-derived lung adenocarcinoma cell line growth inhibition [IpAb]
Settings: spheroids with HUVEC and MSC; for IC50: curve of first compound; for viability, T/C: stronger effect = lower value
Method in brief: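 Combinations with ipatasertib or abemaciclib were tested on tumour spheroids holding HUVEC (25%) and MSC (15%) alongside 60% malignant cells. Top concentration was at or near clinical Cmax (10 microM if undefined), descending in half-log steps.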
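Also: spheroids exposed to compounds for 7 days.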

Question: Which results are given for `CC(C)(C)c1cnc(CSc2cnc(NC(=O)C3CCNCC3)s2)o1` + CC(C)NCC(C(=O)N1CCN(c2ncnc3c2C(C)CC3O)CC1)c1ccc(Cl)cc1?
Answer: IC50 (second compound 0.1 µM): 40.6 nM; IC50 (second compound 0.316 µM): < 9.49 nM; IC50 (second compound 1 µM): < 9.49 nM; IC50 (second compound 3.16 µM): < 9.49 nM; IC50 (second compound 10 µM): < 9.49 nM; viability, T/C (second compound 0.1 µM, first compound 0.00949 µM): 88.9%; viability, T/C (second compound 0.1 µM, first compound 0.03 µM): 65.3%; viability, T/C (second compound 0.1 µM, first compound 0.0949 µM): 6.84%; viability, T/C (second compound 0.1 µM, first compound 0.3 µM): 2.85%; viability, T/C (second compound 0.1 µM, first compound 0.949 µM): 2.98%; viability, T/C (second compound 0.1 µM, first compound 3 µM): 2.15%; viability, T/C (second compound 0.316 µM, first compound 0.00949 µM): 45.6%; viability, T/C (second compound 0.316 µM, first compound 0.03 µM): 31.9%; viability, T/C (second compound 0.316 µM, first compound 0.0949 µM): 5.43%; viability, T/C (second compound 0.316 µM, first compound 0.3 µM): 2.19%; viability, T/C (second compound 0.316 µM, first compound 0.949 µM): 2.77%; viability, T/C (second compound 0.316 µM, first compound 3 µM): 1.75%; viability, T/C (second compound 1 µM, first compound 0.00949 µM): 22.1%; viability, T/C (second compound 1 µM, first compound 0.03 µM): 15.5%; viability, T/C (second compound 1 µM, first compound 0.0949 µM): 3.25%; viability, T/C (second compound 1 µM, first compound 0.3 µM): 2.27%; viability, T/C (second compound 1 µM, first compound 0.949 µM): 2.58%; viability, T/C (second compound 1 µM, first compound 3 µM): 2.1%; viability, T/C (second compound 3.16 µM, first compound 0.00949 µM): 9.45%; viability, T/C (second compound 3.16 µM, first compound 0.03 µM): 8.27%; viability, T/C (second compound 3.16 µM, first compound 0.0949 µM): 3.2%; viability, T/C (second compound 3.16 µM, first compound 0.3 µM): 2.2%; viability, T/C (second compound 3.16 µM, first compound 0.949 µM): 2.72%; viability, T/C (second compound 3.16 µM, first compound 3 µM): 2.4%; viability, T/C (second compound 10 µM, first compound 0.00949 µM): 5.95%; viability, T/C (second compound 10 µM, first compound 0.03 µM): 5.37%; viability, T/C (second compound 10 µM, first compound 0.0949 µM): 2.11%; viability, T/C (second compound 10 µM, first compound 0.3 µM): 1.93%; viability, T/C (second compound 10 µM, first compound 0.949 µM): 2.03%; viability, T/C (second compound 10 µM, first compound 3 µM): 1.53%

Question: What does the source list for `Cn1nccc1Nc1nccc(-c2ccn(C(CO)c3ccc(Cl)c(F)c3)c(=O)c2)n1` (stereo not given) + CC(C)NCC(C(=O)N1CCN(c2ncnc3c2C(C)CC3O)CC1)c1ccc(Cl)cc1?
Answer: IC50 (second compound 0.1 µM): < 31.6 nM; IC50 (second compound 0.316 µM): < 31.6 nM; IC50 (second compound 1 µM): < 31.6 nM; IC50 (second compound 3.16 µM): < 31.6 nM; IC50 (second compound 10 µM): < 31.6 nM; viability, T/C (second compound 0.1 µM, first compound 0.0316 µM): 43.3%; viability, T/C (second compound 0.1 µM, first compound 0.1 µM): 35.9%; viability, T/C (second compound 0.1 µM, first compound 0.316 µM): 33%; viability, T/C (second compound 0.1 µM, first compound 1 µM): 29.7%; viability, T/C (second compound 0.1 µM, first compound 3.16 µM): 21.5%; viability, T/C (second compound 0.1 µM, first compound 10 µM): 17.9%; viability, T/C (second compound 0.316 µM, first compound 0.0316 µM): 23.7%; viability, T/C (second compound 0.316 µM, first compound 0.1 µM): 20.2%; viability, T/C (second compound 0.316 µM, first compound 0.316 µM): 17.9%; viability, T/C (second compound 0.316 µM, first compound 1 µM): 16%; viability, T/C (second compound 0.316 µM, first compound 3.16 µM): 16%; viability, T/C (second compound 0.316 µM, first compound 10 µM): 14.6%; viability, T/C (second compound 1 µM, first compound 0.0316 µM): 10.3%; viability, T/C (second compound 1 µM, first compound 0.1 µM): 10.8%; viability, T/C (second compound 1 µM, first compound 0.316 µM): 8.91%; viability, T/C (second compound 1 µM, first compound 1 µM): 10.4%; viability, T/C (second compound 1 µM, first compound 3.16 µM): 11.8%; viability, T/C (second compound 1 µM, first compound 10 µM): 11%; viability, T/C (second compound 3.16 µM, first compound 0.0316 µM): 7.69%; viability, T/C (second compound 3.16 µM, first compound 0.1 µM): 7.5%; viability, T/C (second compound 3.16 µM, first compound 0.316 µM): 6.61%; viability, T/C (second compound 3.16 µM, first compound 1 µM): 7%; viability, T/C (second compound 3.16 µM, first compound 3.16 µM): 7.85%; viability, T/C (second compound 3.16 µM, first compound 10 µM): 8.65%; viability, T/C (second compound 10 µM, first compound 0.0316 µM): 5.18%; viability, T/C (second compound 10 µM, first compound 0.1 µM): 5.1%; viability, T/C (second compound 10 µM, first compound 0.316 µM): 4.68%; viability, T/C (second compound 10 µM, first compound 1 µM): 4.43%; viability, T/C (second compound 10 µM, first compound 3.16 µM): 5.74%; viability, T/C (second compound 10 µM, first compound 10 µM): 7%
